The values that follow are results of earlier work, collected in article PMC5988656, “Phase I studies of AZD1208, a proviral integration Moloney virus kinase inhibitor in solid and haematological cancers” (British Journal of Cancer, 2018).

Series [1] concerns refractory prostate cancer and relapsed/refractory non-Hodgkin lymphoma. Also noted: method as in ClinicalTrials.gov, NCT00848601. As to conditions: ref ClinicalTrials.gov, NCT00848601; cited from earlier work.
Series [2] deals with relapsed/refractory multiple myeloma (RRMM). To be noted: in vivo; cited from earlier work.

Turning to `CN1CCC(CNc2ccc3ncc(-c4cccc(OC(F)(F)F)c4)n3n2)CC1` [SGI-1776], the “Outcome of clinical development” value in series [1] was “discontinued because of QTc prolongation”.

As for `C[C@@H]1C[C@H](N)C[C@H](c2ccncc2NC(=O)c2ccc(F)c(-c3c(F)cccc3F)n2)C1` [LGH447], in series [2], the DLT fatigue was 2 n, the DLT hypophosphatemia is reported as 1 n, the DLT thrombocytopenia is 4 n and the DLT vasovagal syncope is listed as 1 n. For the same compound, the DLTs entry in series [2] is on record as “eight”.
